{
  "source": "patent US7576207B2",
  "about": "“Spirocyclic heterocyclic derivatives and methods of their use” (Adolor Corporation, priority 2006, dated 2009)",
  "key": {"[1]": {"molecular_target": "T1, cloned human δ opioid receptors (Homo sapiens, UniProt P41143)", "T1 construct": "expressed in transfected cells; host or cells: CHO cells", "T1 sequence (P41143 whole entry)": "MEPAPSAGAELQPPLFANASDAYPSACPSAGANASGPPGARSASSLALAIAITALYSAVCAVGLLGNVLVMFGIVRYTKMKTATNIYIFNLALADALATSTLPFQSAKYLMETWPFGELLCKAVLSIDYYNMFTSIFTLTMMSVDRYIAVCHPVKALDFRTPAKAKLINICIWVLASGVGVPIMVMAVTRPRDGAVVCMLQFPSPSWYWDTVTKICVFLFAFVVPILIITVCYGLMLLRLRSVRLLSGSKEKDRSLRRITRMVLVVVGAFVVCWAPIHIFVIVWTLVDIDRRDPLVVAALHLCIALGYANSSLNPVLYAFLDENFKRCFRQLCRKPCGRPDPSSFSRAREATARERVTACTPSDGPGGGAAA", "test": "[3H]diprenorphine receptor binding, δ opioid receptor", "details": "inhibition of [3H]diprenorphine binding; Cheng-Prusoff correction; read-out: affinity (expressed as Ki value), δ opioid receptor", "description": "(§1) The potencies of the final compounds found in Examples 1A-9D were determined by testing the ability of a range of concentrations of each compound to inhibit the binding of the non-selective opioid antagonist, [^3H]diprenorphine, to the cloned human μ, ? and δ opioid receptors, expressed in separate cell lines. IC50 values were obtained by nonlinear analysis of the data using GraphPad Prism version 3.00 for Windows (GraphPad Software, San Diego). Ki values were obtained by Cheng-Prusoff corrections of IC50 values.\n(§2) The receptor binding method (DeHaven and DeHaven-Hudkins, 1998) was a modification of the method of Raynor et al. (1994). […] The filters were rinsed 4 times with 1 mL of cold 50 mM Tris HCl, pH 7.8 and radioactivity remaining on the filters determined by scintillation spectroscopy. Nonspecific binding was determined by the minimum values of the titration curves and was confirmed by separate assay wells containing 10 μM naloxone. Ki values were determined by Cheng-Prusoff corrections of IC50 values derived from nonlinear regression fits of 12 point titration curves using GraphPad Prism® version 3.00 for Windows (GraphPad Software, San Diego, Calif.).\n(§3) To determine the equilibrium dissociation constant for the inhibitors (Ki), radioligand bound (cpm) in the presence of various concentrations of test compounds was measured. […]"}, "[2]": {"molecular_target": "T2, cloned human μ opioid receptors (Homo sapiens, UniProt P35372)", "T2 construct": "expressed in transfected cells; host or cells: CHO cells", "T2 sequence (P35372 whole entry)": "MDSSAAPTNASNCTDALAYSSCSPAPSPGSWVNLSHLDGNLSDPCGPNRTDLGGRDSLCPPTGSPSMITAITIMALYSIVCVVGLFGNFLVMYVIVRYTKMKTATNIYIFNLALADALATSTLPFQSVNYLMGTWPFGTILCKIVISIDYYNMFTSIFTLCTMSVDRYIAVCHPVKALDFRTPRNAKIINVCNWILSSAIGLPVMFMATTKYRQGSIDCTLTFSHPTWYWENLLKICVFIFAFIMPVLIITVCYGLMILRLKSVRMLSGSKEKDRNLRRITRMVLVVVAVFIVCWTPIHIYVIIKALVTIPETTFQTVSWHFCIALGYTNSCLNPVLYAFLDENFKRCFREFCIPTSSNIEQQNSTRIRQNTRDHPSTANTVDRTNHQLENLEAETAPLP", "test": "[3H]diprenorphine receptor binding, μ opioid receptor", "details": "inhibition of [3H]diprenorphine binding; Cheng-Prusoff correction; read-out: affinity (expressed as Ki value), μ opioid receptor", "description": "as §1, §2, §3"}, "[3]": {"molecular_target": "T3, cloned human κ opioid receptors (Homo sapiens, UniProt P41145)", "T3 construct": "expressed in transfected cells; host or cells: CHO cells", "T3 sequence (P41145 whole entry)": "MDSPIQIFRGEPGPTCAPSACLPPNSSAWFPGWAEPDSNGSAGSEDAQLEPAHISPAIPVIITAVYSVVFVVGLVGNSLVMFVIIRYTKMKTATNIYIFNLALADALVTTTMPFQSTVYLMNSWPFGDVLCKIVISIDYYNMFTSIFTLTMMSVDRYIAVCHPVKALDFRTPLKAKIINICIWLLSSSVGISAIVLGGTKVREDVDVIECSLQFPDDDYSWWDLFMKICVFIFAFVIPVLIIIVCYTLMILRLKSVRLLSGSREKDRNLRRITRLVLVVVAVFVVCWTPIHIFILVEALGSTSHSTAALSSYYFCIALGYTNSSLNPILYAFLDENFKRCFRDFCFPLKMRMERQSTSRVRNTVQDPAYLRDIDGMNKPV", "test": "[3H]diprenorphine receptor binding, κ opioid receptor", "details": "inhibition of [3H]diprenorphine binding; Cheng-Prusoff correction; read-out: affinity (expressed as Ki value), κ opioid receptor", "description": "as §1, §2, §3"}, "[4]": {"molecular_target": "T1, cloned human δ opioid receptors", "test": "Receptor-mediated [35S]GTPγS binding, δ opioid receptor", "type": "biochemical", "details": "stimulation of [35S]GTPγS binding to membranes containing cloned human δ opioid receptors; read-out: in vitro δ agonist activity EC50", "description": "The potency and efficacy of compounds at each of the receptors are assessed by modifications of the methods of Selley, et al., 1997 and Traynor and Nahorski, 1995 using receptor-mediated [S]GTPγS binding in the same membrane preparations used to measure receptor binding. Assays are carried out in 96-well FlashPlates® (Perkin Elmer Life Sciences, Inc, Boston, Mass.). Membranes prepared from CHO cells expressing the appropriate receptor (50-100 μg of protein) are added to assay mixtures containing agonist with or without antagonists, 100 pM [^35S]GTPγS (approx. 100,000 dpm), 3.0 μM GDP, 75 mM NaCl, 15 mM MgCl2, 1.0 mM ethylene glycol-bis(β-aminoethyl ether)-N,N,N′,N′-tetracetic acid, 1.1 mM dithiothreitol, 10 μg/mL leupeptin, 10 μg/mL pepstatin A, 200 μg/mL bacitracin, and 0.5 μg/mL aprotinin in 50 mM Tris-HCl buffer, pH 7.8. After incubation at room temperature for one hour, the plates are sealed, centrifuged at 800×g in a swinging bucket rotor for 5 minutes and bound radioactivity determined with a TopCount microplate scintillation counter (Packard Instrument Co., Meriden, Conn.).\nEC50 values for agonists are determined from nonlinear regression fits of 8- or 12-point titration curves to the 4-parameter equation for a sigmoidal dose-response with a slope factor of 1.0 using GraphPad Prism® version 3.00 for Windows (GraphPad Software, San Diego, Calif.)."}},
  "data": [
    {"compound": "CCNC(=O)c1ccc2c(c1)C(CCCCC(=O)N(CC)CC)CC1(CCNCC1)C2", "note": "(stereo not shown) [Example 9D, 4-[(4-N,N-diethylaminocarbonyl)butyl]-spiro[6-N-ethylcarbonyl-1,2,3,4-tetrahydronaphthalene-2,4′-piperidine]]", "values": [
      {"measurement": "Ki", "setting": "[1]", "result": 0.47, "unit": "nM"},
      {"measurement": "Ki", "setting": "[2]", "result": 632, "unit": "nM"},
      {"measurement": "Ki", "setting": "[3]", "result": 696, "unit": "nM"},
      {"measurement": "EC50", "setting": "[4]", "result": 8.1, "unit": "nM"}
    ]}
  ]
}
